Assay results as given in US9474790B2, “Stable, protracted GLP-1/glucagon receptor co-agonists for medical use” (Novo Nordisk A/S, priority 2013, dated 2016).
Numbered stars: 1 amine (or outer) side, 2 acyl side, 3 side chain; on linkers, the order of the positions; unused ones are H or OH. Square brackets hold non-standard residues; d marks the D form. Side chains are listed from the residue outwards. Peptide text beside a SMILES is read from it. * marks the point of attachment. C18 diacid = O=C(O)CCCCCCCCCCCCCCCCC(=O)*; γGlu = O=C(O)[C@H](CCC(=O)[*:2])N[*:1]; Ac4c = NC1(C(=O)O)CCC1; AEEA = NCCOCCOCC(=O)O; Aib = CC(C)(N)C(=O)O

Experiment: Thioflavin T (ThT) fibrillation assay for physical stability
Type: physicochemical
Conditions: 250 μM in 10 mM HEPES buffer, pH 7.5, 37° C., shaking 960 rpm
Summary of the method: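 Fibrillation was followed by ThT (1 μM) fluorescence every 20 min, 444/485 nm, for 250 μM peptide in 10 mM HEPES pH 7.5 shaken at 960 rpm, 37° C. Lag time (t0−2τ) and apparent rate constant (1/τ) come from a sigmoidal fit. Recovery is % of initial concentration remaining soluble after centrifugation and filtration (RP-HPLC).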

Row | Structure (SMILES) | THT assay Lag time (Ex. 76)
1 | CC(C)C[C@H](NC(=O)[C@H](Cc1ccc(O)cc1)NC(=O)[C@H](CCCCN)NC(=O)[C@H](CO)NC(=O)[C@H](CC(C)C)NC(=O)[C@H](CC(=O)O)NC(=O)[C@H](CO)NC(=O)[C@@H](NC(=O)[C@H](Cc1ccccc1)NC(=O)[C@@H](NC(=O)CNC(=O)[C@H](CCC(N)=O)NC(=O)C(C)(C)NC(=O)[C@@H](N)Cc1c[nH]cn1)[C@@H](C)O)[C@@H](C)O)C(=O)N[C@@H](CCC(=O)O)C(=O)N[C@@H](CO)C(=O)N[C@@H](CCCNC(=N)N)C(=O)N[C@@H](CCCNC(=N)N)C(=O)N[C@@H](C)C(=O)N[C@@H](CCCNC(=N)N)C(=O)N[C@@H](CCC(=O)O)C(=O)N[C@@H](Cc1ccccc1)C(=O)N[C@H](C(=O)N[C@@H](CCC(N)=O)C(=O)N[C@@H](Cc1c[nH]c2ccccc12)C(=O)N[C@@H](CC(C)C)C(=O)N[C@@H](CC(C)C)C(=O)N[C@@H](CCCCNC(=O)COCCOCCNC(=O)COCCOCCNC(=O)CC[C@H](NC(=O)CC[C@H](NC(=O)CC[C@H](NC(=O)CCCCCCCCCCCCCCCCC(=O)O)C(=O)O)C(=O)O)C(=O)O)C(=O)N[C@H](C(N)=O)[C@@H](C)O)C(C)C [Example 42, N^ε28-[2-[2-[2-[[2-[2-[2-[[(4S)-4-carboxy-4-[[(4S)-4-carboxy-4-[[(4S)-4-carboxy-4-(17-carboxyheptadecanoylamino)butanoyl]amino]butanoyl]amino]butanoyl]amino]ethoxy]ethoxy]acetyl]amino]ethoxy]ethoxy]acetyl]-[Aib2,Leu10,Glu15,Arg20,Glu21,Leu27,Lys28]-Glucagon amide] (H-H[Aib]QGTFTSDLSKYLESRRAREFVQWLLK([AEEA-AEEA-γGlu-γGlu-γGlu-C18 diacid])T-NH2; N-terminus assumed) | 45 h
2 | CC(C)C[C@H](NC(=O)[C@H](Cc1ccc(O)cc1)NC(=O)[C@H](CCCCN)NC(=O)[C@H](CO)NC(=O)[C@H](CC(C)C)NC(=O)[C@H](CC(=O)O)NC(=O)[C@H](CO)NC(=O)[C@@H](NC(=O)[C@H](Cc1ccccc1)NC(=O)[C@@H](NC(=O)CNC(=O)[C@H](CCC(N)=O)NC(=O)C(C)(C)NC(=O)[C@@H](N)Cc1c[nH]cn1)[C@@H](C)O)[C@@H](C)O)C(=O)N[C@@H](CC(=O)O)C(=O)N[C@@H](C)C(=O)N[C@@H](CCCNC(=N)N)C(=O)N[C@@H](CCCNC(=N)N)C(=O)N[C@@H](C)C(=O)N[C@@H](CCCNC(=N)N)C(=O)N[C@@H](CCC(=O)O)C(=O)N[C@@H](Cc1ccccc1)C(=O)N[C@H](C(=O)N[C@@H](CCC(N)=O)C(=O)N[C@@H](Cc1c[nH]c2ccccc12)C(=O)N[C@@H](CC(C)C)C(=O)N[C@@H](CC(C)C)C(=O)N[C@@H](CCCCNC(=O)CC[C@H](NC(=O)CC[C@H](NC(=O)COCCOCCNC(=O)COCCOCCNC(=O)CC[C@H](NC(=O)CCCCCCCCCCCCCCCCC(=O)O)C(=O)O)C(=O)O)C(=O)O)C(=O)N[C@H](C(N)=O)[C@@H](C)O)C(C)C [Example 43, N^ε28-[(4S)-4-carboxy-4-[[(4S)-4-carboxy-4-[[2-[2-[2-[[2-[2-[2-[[(4S)-4-carboxy-4-(17-carboxyheptadecanoylamino)butanoyl]amino]ethoxy]ethoxy]acetyl]amino]ethoxy]ethoxy]acetyl]amino]butanoyl]amino]butanoyl]-[Aib2,Leu10,Ala16,Arg20,Glu21,Leu27,Lys28]-Glucagon amide] (H-H[Aib]QGTFTSDLSKYLDARRAREFVQWLLK([γGlu-γGlu-AEEA-AEEA-γGlu-C18 diacid])T-NH2; N-terminus assumed) | 45 h
3 | CC(C)C[C@H](NC(=O)[C@H](Cc1ccc(O)cc1)NC(=O)[C@H](CCCCN)NC(=O)[C@H](CO)NC(=O)[C@H](CC(C)C)NC(=O)[C@H](CC(=O)O)NC(=O)[C@H](CO)NC(=O)[C@@H](NC(=O)[C@H](Cc1ccccc1)NC(=O)[C@@H](NC(=O)CNC(=O)[C@H](CCC(N)=O)NC(=O)C1(NC(=O)[C@@H](N)Cc2c[nH]cn2)CCC1)[C@@H](C)O)[C@@H](C)O)C(=O)N[C@@H](CCC(=O)O)C(=O)N[C@@H](CO)C(=O)N[C@@H](CCCNC(=N)N)C(=O)N[C@@H](CCCNC(=N)N)C(=O)N[C@@H](C)C(=O)N[C@@H](CCCNC(=N)N)C(=O)N[C@@H](CCC(=O)O)C(=O)N[C@@H](Cc1ccccc1)C(=O)N[C@H](C(=O)N[C@@H](CCC(N)=O)C(=O)N[C@@H](Cc1c[nH]c2ccccc12)C(=O)N[C@@H](CC(C)C)C(=O)N[C@@H](CC(C)C)C(=O)N[C@@H](CCCCNC(=O)CC[C@H](NC(=O)CC[C@H](NC(=O)COCCOCCNC(=O)COCCOCCNC(=O)CC[C@H](NC(=O)CCCCCCCCCCCCCCCCC(=O)O)C(=O)O)C(=O)O)C(=O)O)C(=O)N[C@H](C(N)=O)[C@@H](C)O)C(C)C [Example 44, N^ε28-[(4S)-4-carboxy-4-[[(4S)-4-carboxy-4-[[2-[2-[2-[[2-[2-[2-[[(4S)-4-carboxy-4-(17-carboxyheptadecanoylamino)butanoyl]amino]ethoxy]ethoxy]acetyl]amino]ethoxy]ethoxy]acetyl]amino]butanoyl]amino]butanoyl]-[Acb2,Leu10,Glu15,Arg20,Glu21,Leu27,Lys28]-Glucagon amide] (H-H[Ac4c]QGTFTSDLSKYLESRRAREFVQWLLK([γGlu-γGlu-AEEA-AEEA-γGlu-C18 diacid])T-NH2; N-terminus assumed) | 45 h
4 | CC(C)C[C@H](NC(=O)[C@H](CC(=O)O)NC(=O)[C@H](CC(C)C)NC(=O)[C@H](Cc1ccc(O)cc1)NC(=O)[C@H](CCCCN)NC(=O)[C@H](CO)NC(=O)[C@H](CC(C)C)NC(=O)[C@H](CC(=O)O)NC(=O)[C@H](CO)NC(=O)[C@@H](NC(=O)[C@H](Cc1ccccc1)NC(=O)[C@@H](NC(=O)CNC(=O)[C@H](CCC(N)=O)NC(=O)C1(NC(=O)[C@@H](N)Cc2c[nH]cn2)CCC1)[C@@H](C)O)[C@@H](C)O)C(=O)N[C@@H](CCCNC(=N)N)C(=O)N[C@@H](CCCNC(=N)N)C(=O)N[C@@H](C)C(=O)N[C@@H](CCCNC(=N)N)C(=O)N[C@@H](CC(=O)O)C(=O)N[C@@H](Cc1ccccc1)C(=O)N[C@H](C(=O)N[C@@H](CCC(N)=O)C(=O)N[C@@H](Cc1c[nH]c2ccccc12)C(=O)N[C@@H](CC(C)C)C(=O)N[C@@H](CC(C)C)C(=O)N[C@@H](CCCCNC(=O)CC[C@H](NC(=O)CC[C@H](NC(=O)COCCOCCNC(=O)COCCOCCNC(=O)CC[C@H](NC(=O)CC[C@H](NC(=O)CCCCCCCCCCCCCCCCC(=O)O)C(=O)O)C(=O)O)C(=O)O)C(=O)O)C(=O)N[C@H](C(N)=O)[C@@H](C)O)C(C)C [Example 45, N^ε28-[(4S)-4-carboxy-4-[[(4S)-4-carboxy-4-[[2-[2-[2-[[2-[2-[2-[[(4S)-4-carboxy-4-[[(4S)-4-carboxy-4-(17-carboxyheptadecanoylamino)butanoyl]amino]butanoyl]amino]ethoxy]ethoxy]acetyl]amino]ethoxy]ethoxy]acetyl]amino]butanoyl]amino]butanoyl]-[Acb2,Leu10,Leu16,Arg20,Leu27,Lys28]-Glucagon amide] (H-H[Ac4c]QGTFTSDLSKYLDLRRARDFVQWLLK([γGlu-γGlu-AEEA-AEEA-γGlu-γGlu-C18 diacid])T-NH2; N-terminus assumed) | 45 h
5 | CC(C)C[C@H](NC(=O)[C@H](CC(=O)O)NC(=O)[C@H](CC(C)C)NC(=O)[C@H](Cc1ccc(O)cc1)NC(=O)[C@H](CCCNC(=N)N)NC(=O)[C@H](CO)NC(=O)[C@H](CC(C)C)NC(=O)[C@H](CC(=O)O)NC(=O)[C@H](CO)NC(=O)[C@@H](NC(=O)[C@H](Cc1ccccc1)NC(=O)[C@@H](NC(=O)CNC(=O)[C@H](CCC(N)=O)NC(=O)C1(NC(=O)[C@@H](N)Cc2c[nH]cn2)CCC1)[C@@H](C)O)[C@@H](C)O)C(=O)N[C@@H](CCCNC(=N)N)C(=O)N[C@@H](CCCNC(=N)N)C(=O)N[C@@H](C)C(=O)N[C@@H](CCCNC(=N)N)C(=O)N[C@@H](CC(=O)O)C(=O)N[C@@H](Cc1ccccc1)C(=O)N[C@H](C(=O)N[C@@H](CCC(N)=O)C(=O)N[C@@H](Cc1c[nH]c2ccccc12)C(=O)N[C@@H](CC(C)C)C(=O)N[C@@H](CC(C)C)C(=O)N[C@@H](CCCCNC(=O)CC[C@H](NC(=O)CC[C@H](NC(=O)COCCOCCNC(=O)COCCOCCNC(=O)CC[C@H](NC(=O)CC[C@H](NC(=O)CCCCCCCCCCCCCCCCC(=O)O)C(=O)O)C(=O)O)C(=O)O)C(=O)O)C(=O)N[C@H](C(N)=O)[C@@H](C)O)C(C)C [Example 46, N^ε28-[(4S)-4-carboxy-4-[[(4S)-4-carboxy-4-[[2-[2-[2-[[2-[2-[2-[[(4S)-4-carboxy-4-[[(4S)-4-carboxy-4-(17-carboxyheptadecanoylamino)butanoyl]amino]butanoyl]amino]ethoxy]ethoxy]acetyl]amino]ethoxy]ethoxy]acetyl]amino]butanoyl]amino]butanoyl]-[Acb2,Leu10,Arg12,Leu16,Arg20,Leu27,Lys28]-Glucagon amide] (H-H[Ac4c]QGTFTSDLSRYLDLRRARDFVQWLLK([γGlu-γGlu-AEEA-AEEA-γGlu-γGlu-C18 diacid])T-NH2; N-terminus assumed) | 45 h
